Measurements taken from ChEMBL document CHEMBL1152536, “Molecular modeling of human acidic mammalian chitinase in complex with the natural-product cyclopentapeptide chitinase inhibitor argifin” (Bioorg Med Chem, 2009).

Biological target: Acidic mammalian chitinase (Homo sapiens, UniProt Q9BZP6)
Test: Inhibition of human acidic mammalian chitinase

Sequence of Acidic mammalian chitinase (Q9BZP6 whole entry): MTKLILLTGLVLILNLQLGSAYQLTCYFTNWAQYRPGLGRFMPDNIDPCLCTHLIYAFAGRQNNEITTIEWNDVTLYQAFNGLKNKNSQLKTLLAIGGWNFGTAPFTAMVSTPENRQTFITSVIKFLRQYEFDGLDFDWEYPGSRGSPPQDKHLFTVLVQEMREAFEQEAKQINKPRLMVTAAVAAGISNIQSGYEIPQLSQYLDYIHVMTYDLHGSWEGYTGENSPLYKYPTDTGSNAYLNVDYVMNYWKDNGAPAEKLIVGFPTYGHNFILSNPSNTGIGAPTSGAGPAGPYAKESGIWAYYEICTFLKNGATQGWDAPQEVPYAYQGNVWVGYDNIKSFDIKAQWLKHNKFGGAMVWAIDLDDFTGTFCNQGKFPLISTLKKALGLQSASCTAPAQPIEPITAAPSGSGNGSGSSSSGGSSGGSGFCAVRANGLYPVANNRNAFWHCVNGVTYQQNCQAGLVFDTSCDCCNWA

IC50: 4.5 µM
SMILES: CNC(=O)NC(=N)NCCC[C@@H]1NC(=O)[C@@H](C)NC(=O)C[C@@H](C(=O)O)NC(=O)C[C@@H](C(=O)O)NC(=O)[C@H](Cc2ccccc2)N(C)C1=O [ARGIFIN]
